Results from ChEMBL document CHEMBL1933046, “Synthesis and antibacterial activity of a novel series of acylides active against community acquired respiratory pathogens” (2012).
In brackets after ≈: the same amount, converted by molar mass.

Key:
Type in all cases: functional
[1] = tested on: Moraxella catarrhalis; test: Antibacterial activity against Moraxella catarrhalis 8176 by NCCLS method
[2] = tested on: Streptococcus pneumoniae; test: Antibacterial activity against Streptococcus pneumoniae 49619 by NCCLS method
[3] = tested on: Streptococcus pneumoniae; test: Antibacterial activity against Streptococcus pneumoniae 994 expressing mef gene by NCCLS method
[4] = tested on: Streptococcus pyogenes; test: Antibacterial activity against Streptococcus pyogenes 19615 by NCCLS method
[5] = tested on: Streptococcus pneumoniae; test: Antibacterial activity against Streptococcus pneumoniae 6303 by NCCLS method
[6] = tested on: Streptococcus pneumoniae; test: Antibacterial activity against Streptococcus pneumoniae 3579 expressing erm gene by NCCLS method
[7] = tested on: Haemophilus influenzae; test: Antibacterial activity against Haemophilus influenzae 38 by NCCLS method
[8] = tested on: Streptococcus pneumoniae; test: Antibacterial activity against Streptococcus pneumoniae by NCCLS method

`C=CCN(C)[C@H]1C[C@@H](C)O[C@@H](O[C@@H]2[C@@H](C)[C@H](OC(=O)Cc3ccccn3)[C@@H](C)C(=O)O[C@H](CC)[C@@]3(C)OC(=O)N(CCCCn4cnc(-c5cnc(N)nc5)c4)[C@@H]3[C@@H](C)C(=O)[C@H](C)C[C@@]2(C)OC)[C@@H]1O` was tested, and the MIC [1] was 0.125 µg/mL (≈ 0.128 µM), the MIC [2] was 0.03 µg/mL (≈ 0.0308 µM) and the MIC [3] was 0.06 µg/mL (≈ 0.0615 µM). The MIC [4] was 2 µg/mL (≈ 2.05 µM), the MIC [5] was 0.03 µg/mL (≈ 0.0308 µM) and the MIC [6] was 0.125 µg/mL (≈ 0.128 µM).

With `C=CCN(C)[C@H]1C[C@@H](C)O[C@@H](O[C@@H]2[C@@H](C)[C@H](OC(=O)Cc3ccccn3)[C@@H](C)C(=O)O[C@H](CC)[C@@]3(C)OC(=O)N(CCCCn4cnc5c(N)ncnc54)[C@@H]3[C@@H](C)C(=O)[C@H](C)C[C@@]2(C)OC)[C@@H]1O` the MIC [1] was 0.125 µg/mL (≈ 0.132 µM), the MIC [2] was 0.06 µg/mL (≈ 0.0632 µM) and the MIC [3] was 0.125 µg/mL (≈ 0.132 µM). The MIC [4] was 0.03 µg/mL (≈ 0.0316 µM), the MIC [5] was 0.125 µg/mL (≈ 0.132 µM) and the MIC [7] was 0.125 µg/mL (≈ 0.132 µM). It also gave an MIC [6] of 0.5 µg/mL (≈ 0.527 µM).

In the case of `CC[C@H]1OC(=O)[C@H](C)[C@@H](OC(=O)Cc2cccc([N+](=O)[O-])c2)[C@H](C)[C@@H](O[C@@H]2O[C@H](C)C[C@H](N(C)CC)[C@H]2O)[C@](C)(OC)C[C@@H](C)C(=O)[C@H](C)[C@@H](O)[C@]1(C)O`, the MIC [8] is reported as 0.25 µg/mL (≈ 0.326 µM).

`C=CCN(C)[C@H]1C[C@@H](C)O[C@@H](O[C@@H]2[C@@H](C)[C@H](OC(=O)Cc3cccc([N+](=O)[O-])c3)[C@@H](C)C(=O)O[C@H](CC)[C@@](C)(O)[C@H](O)[C@@H](C)C(=O)[C@H](C)C[C@@]2(C)OC)[C@@H]1O` gave an MIC [8] of 0.06 µg/mL (≈ 0.077 µM).

Compound `CC[C@H]1OC(=O)[C@H](C)[C@@H](OC(=O)Cc2cccc(F)c2)[C@H](C)[C@@H](O[C@@H]2O[C@H](C)C[C@H](N(C)Cc3ccc(F)cc3)[C@H]2O)[C@](C)(OC)C[C@@H](C)C(=O)[C@H](C)[C@@H](O)[C@]1(C)O` has an MIC [8] of 2 µg/mL (≈ 2.44 µM).

With `C=CCN(C)[C@H]1C[C@@H](C)O[C@@H](O[C@@H]2[C@@H](C)[C@H](OC(=O)Cc3ccncc3)[C@@H](C)C(=O)O[C@H](CC)[C@@](C)(O)[C@H](O)[C@@H](C)C(=O)[C@H](C)C[C@@]2(C)OC)[C@@H]1O` the MIC [8] was 0.5 µg/mL (≈ 0.68 µM).

In the case of `C#CCN(C)[C@H]1C[C@@H](C)O[C@@H](O[C@@H]2[C@@H](C)[C@H](OC(=O)Cc3cccnc3)[C@@H](C)C(=O)O[C@H](CC)[C@@](C)(O)[C@H](O)[C@@H](C)C(=O)[C@H](C)C[C@@]2(C)OC)[C@@H]1O`, the MIC [8] is reported as 2 µg/mL (≈ 2.73 µM).

`CC[C@H]1OC(=O)[C@H](C)[C@@H](OC(=O)Cc2ccncc2)[C@H](C)[C@@H](O[C@@H]2O[C@H](C)C[C@H](N(C)CC3CC3)[C@H]2O)[C@](C)(OC)C[C@@H](C)C(=O)[C@H](C)[C@@H](O)[C@]1(C)O` was tested, and the MIC [8] was 32 µg/mL (≈ 42.7 µM).

Compound `CC[C@H]1OC(=O)[C@H](C)[C@@H](OC(=O)Cc2ccc(F)cc2)[C@H](C)[C@@H](O[C@@H]2O[C@H](C)C[C@H](N(C)C3CC3)[C@H]2O)[C@](C)(OC)C[C@@H](C)C(=O)[C@H](C)[C@@H](O)[C@]1(C)O` has an MIC [8] of 32 µg/mL (≈ 42.6 µM).

With `CC[C@H]1OC(=O)[C@H](C)[C@@H](OC(=O)Cc2ccc([N+](=O)[O-])cc2)[C@H](C)[C@@H](O[C@@H]2O[C@H](C)C[C@H](N(C)C3CC3)[C@H]2O)[C@](C)(OC)C[C@@H](C)C(=O)[C@H](C)[C@@H](O)[C@]1(C)O` the MIC [8] was > 32 µg/mL.

`C=CCN(C)[C@H]1C[C@@H](C)O[C@@H](O[C@@H]2[C@@H](C)[C@H](OC(=O)Cc3cccnc3)[C@@H](C)C(=O)O[C@H](CC)[C@@](C)(O)[C@H](O)[C@@H](C)C(=O)[C@H](C)C[C@@]2(C)OC)[C@@H]1O` showed an MIC [8] of 0.25 µg/mL (≈ 0.34 µM).

`CC[C@H]1OC(=O)[C@H](C)[C@@H](OC(=O)Cc2ccccn2)[C@H](C)[C@@H](O[C@@H]2O[C@H](C)C[C@H](N(C)CC)[C@H]2O)[C@](C)(OC)C[C@@H](C)C(=O)[C@H](C)[C@@H](O)[C@]1(C)O` showed an MIC [8] of 0.25 µg/mL (≈ 0.346 µM).

For `CC[C@H]1OC(=O)[C@H](C)[C@@H](OC(=O)Cc2ccc(F)cc2)[C@H](C)[C@@H](O[C@@H]2O[C@H](C)C[C@H](N(C)CC)[C@H]2O)[C@](C)(OC)C[C@@H](C)C(=O)[C@H](C)[C@@H](O)[C@]1(C)O`, the MIC [8] was 0.5 µg/mL (≈ 0.676 µM).

Compound `CC[C@H]1OC(=O)[C@H](C)[C@@H](OC(=O)Cc2cccc(F)c2)[C@H](C)[C@@H](O[C@@H]2O[C@H](C)C[C@H](N(C)CC)[C@H]2O)[C@](C)(OC)C[C@@H](C)C(=O)[C@H](C)[C@@H](O)[C@]1(C)O` has an MIC [8] of 0.125 µg/mL (≈ 0.169 µM).
